Measured values taken from publication PMC8962522, “Direct interaction of TrkA/CD44v3 is essential for NGF-promoted aggressiveness of breast cancer cells” (Journal of Experimental & Clinical Cancer Research : CR, 2022).

Key:
[1] = Body weight in xenografted SCID mice; type: in vivo; settings: 10 mice per group; injections near the tumor
Protocol: (§1) MDA-MB-231 cells (2 × 10^6) were subcutaneously injected into the flanks of six-week-old female SCID mice. One month after injection, the mice were randomized into 2 groups and injected near the tumor with CD44v3 mimetic peptide 4 (P4) or not (control) five times in a 3-day interval. Tumor volume was determined throughout the experiment by measuring the length (l) and width (w) and was calculated as π/6 × l × w × […]. Animals were sacrificed using isoflurane anesthesia when the tumors reached a similar size, and the organs were immediately removed and stored in liquid nitrogen.
Fig. 6 CD44v3 mimetic peptide 4 blocks MDA-MB-231 tumor growth and metastasis. Schematic representation of the experimental setup for MDA-MB-231 tumor growth assessment in SCID mice (A). Body weight (B) and tumor volume (C) were measured following CD44v3 mimetic peptide administration (10 mice per group). Schematic representation of the experimental setup for MDA-MB-231 metastasis assessment in SCID mice (D). Percentage of metastasis-positive lungs, brains and livers (E) after scramble peptide or CD44v3 mimetic peptide 4 treatment (3 mice/group) or (F) after TrkA-H112 mutant treatment (6 mice) compared with HA-TrkA cells (5 mice). ** p < 0.01; ns, nonsignificant. […]

[2] = system: MDA-MB-231 cell metastasis; assay: Metastasis of MDA-MB-231 xenografts (PCR of human microglobulin); type: in vivo, SCID mice; settings: lung, brain and liver; mice sacrificed when primary tumors reached the same size
Protocol: as §1
Each organ was placed in a Precellys tube with QIAzol (1 mL) for lysis using a Precellys machine (3×). […]
To assess the role of TrkA/CD44v3 in vivo, SCID mice were injected with MDA-MB-231 cells to generate xenografts. Primary tumor development and metastasis (to the lung, brain and liver) were analyzed (Fig. 6). […] The development of primary tumors was measured throughout the experiments. […] We also assessed the metastatic burden. […] Micrometastases were detected at the end of the experiment by PCR of human microglobulin in xenograft mice treated with or without the CD44v3 mimetic peptide (Fig. 6E). […]
Fig. 6 CD44v3 mimetic peptide 4 blocks MDA-MB-231 tumor growth and metastasis. […] Body weight (B) and tumor volume (C) were measured following CD44v3 mimetic peptide administration (10 mice per group). […]

[3] = system: TrkA/CD44v3 complex in HCC-1954 cells; assay: PLA TrkA/CD44v3 complex formation in HCC-1954 cells; type: cell-based; settings: Her2-like; NGF 100 ng/ml
Protocol: Cells (10,000 cells per well) were grown on acid-washed eight-well glass slides (Thermo Scientific) in the appropriate medium supplemented with 10% FBS for 24 h. After NGF treatment, paraformaldehyde (PAF)-fixed cells were incubated with 4% bovine serum albumin (BSA) or 5% FBS (for 1 h at 20 °C), followed by overnight incubation with primary antibodies (rabbit anti-TrkA or rabbit anti-IgG + mouse anti-pan-CD44; mouse anti-CD44v3; mouse anti-CD44v6; mouse anti-IgG2a; mouse anti-IgG2b; or mouse anti-IgG1). PLA was performed following the manufacturer’s instructions in the assay kit (Duolink PLA; Sigma–Aldrich). To obtain the correct representation of the PLA signal for each condition, 30 fields per condition were observed using a fluorescence microscope (Eclipse TiU; Nikon, Japan). The PLA signals (red dots) were automatically quantified using ImageJ software (with an in-house-developed plug-in). […]
Fig. 7 The TrkA/CD44v3 complex is formed in PR-negative breast cancer cells and tumors. TrkA/CD44v3 complex formation was measured in SUM159-PT (triple negative—i.e., ERα-, PR-, and Her2-) cells (A), T47-D (luminal A—i.e., ERα+, PR+, and Her2-) cells (B), BT-474 (luminal B—ERα+, PR+, and Her2+) cells (C), HCC-1954 (Her2-like—ERα-, PR-, and Her2+) cells (D), and 150 tumor patient samples obtained from US BioMax (HBre-Duc150Sur01) (E, F) using the proximity ligation assay (PLA). […]

Row | Substance | body weight (in words) [1] | metastatic burden (in words) [2] | effect on TrkA/CD44v3 complex formation (PLA) in HCC-1954 cells [3]
1 | IDDDEDFISST [Peptide 4, mimetic peptide 4 (…) corresponding to the C-terminal region of CD44v3] | did not affect the overall body weight of the mice | decreased the metastatic burden at each analyzed location | 
2 | NGF: recombinant human β-NGF (Alomone Labs, Israel) |  |  | NGF induction of CD44v3/TrkA complex formation was observed in SUM-159PT (TN) and HCC-1954 (Her2) cells
